# From patent US20070036717A1, “Chemoradiotherapy with TS-1/camptothecins” (The Kitasato Gakuen Foundation, priority 2005, published 2007)
# Structures can show the parent of a compound that is named as a salt.
# Test: Adverse reactions (NCI-CTC Version 2.0), maximum tolerated and recommended dose of CPT-11
# Type: in vivo, human patients
# Settings: with TS-1 80 mg/m^2/day and radiation 45 Gy
# Description: A Phase I/II clinical study of preoperative chemoradiotherapy with TS-1/CPT-11 was conducted to estimate the maximum tolerated dose (MTD) and recommended dose (RD) of CPT-11. The subjects had cancer of the rectum (excluding the rectosigmoid (Rs)) with a preoperative diagnosis of T3′ (tumors showing invasion through the muscularis propria into the subserosa, or into the nonperitonealized pericolic or perirectal tissues) or T4′ (tumors perforating the visceral peritoneum and/or directly invading other organs or structures), and N0 to N3′. Response rates and safety (percentage of adverse reactions and percentage of complications) were also evaluated with RD administration. (2) Subject selection
# Level 1 (CPT-11, 40 mg/m^2) was the starting dose, and dose was titrated until the maximum tolerated dose could be estimated. […]
# After the level of the maximum tolerated dose was confirmed, the recommended dose was determined by reducing the 10 mg/m^2 (one level) increments.
# Maximum tolerated dose was determined on the basis of the adverse reactions observed during the first week after completing chemotherapy. (Maximum tolerated dose was evaluated in the modality of coadministration with radiation.)
# Side effects were evaluated according to the National Cancer Institute Common Toxicity Criteria (Version 2.0; NCI-CTC). Effects not on the NCI-CTC form were scored on the following five-grade scale.
smiles,measurement,value
"CCc1c2c(nc3ccc(OC(=O)N4CCC(N5CCCCC5)CC4)cc13)-c1cc3c(c(=O)n1C2)COC(=O)[C@]3(O)CC [CPT-11, (4S)-4a, 11-diethyl-4β-hydroxy-9-[[4-(piperidin-1-yl)piperidin-1-yl]carbonyloxy]1H-pyrano[3′,4′:6,7]indolizino[1,2-b]quinoline-3,14-(4H,12H)dione hydrochloride salt]",final recommended dose of CPT-11,80 mg/m^2
